This is an account of results in publication PMC6154339, “Synthesis, Characterization, Antimicrobial and Antiproliferative Activity Evaluation of Cu(II), Co(II), Zn(II), Ni(II) and Pt(II) Complexes with Isoniazid-Derived Compound” (Molecules : A Journal of Synthetic Chemistry and Natural …, 2017).

Structures are written as SMILES. ≈ marks a conversion by molar mass, not a printed value. Like-named read-outs stand apart in the source and are kept apart here.

The subject of data set [1] is Escherichia coli, ATCC 25922. Briefly: Antibacterial activity, serial dilutions in liquid broth (MIC/MBC). Format: cell-based. To be noted: E. coli (G −). The source says:
(§1) All synthesized complexes and the ligand were screened for their in vitro antibacterial activity against Gram-positive bacteria (Staphylococcus aureus), Gram-negative bacteria (Escherichia coli, Klebsiella pneumoniae) and antifungal activity (Candida albicans) strains using the paper disc diffusion technique (for the qualitative determination) and the serial dilutions in liquid broth method (for determination of MIC). Furacillinum and nystatine were used as standard drugs.
(§2) The antibacterial activity of complexes and also of their prototype furacilin has been determined under liquid nutritive environment (2% of peptonate bullion (pH 7.0)) using the successive dilutions method. Escherichia coli, Klebsiella pneumoniae, and Staphylococcus aureus stems were used as reference culture for the in vitro experiment. The dissolution of studied substances in dimethylformamide, microorganism cultivation, suspension obtaining, determination of minimal inhibition concentration (MIC) and minimal bactericide concentration (MBC) have been carried out according to the method previously reported.

Data set [2] concerns Klebsiella pneumoniae, ATCC 31,488. The data set is described as above. It is filed as cell-based. Conditions: K. pneumoniae (G −).
Excerpt: as §1, §2

Data set [3] deals with Staphylococcus aureus, ATCC 25923. The description is as above. It is filed as cell-based. To be noted: S. aureus (G +).
Excerpt: as §1, §2

The next data set concerns Candida albicans. Briefly: Antifungal (antimycotic) activity, liquid Sabouraud medium (MIC/MBC). It is filed as cell-based. To be noted: C. albicans.
Excerpt: as §1
Antimycotic properties of the complexes were investigated in vitro on laboratory stem Candida albicans. The activity has been determined in a liquid Sabouraud nutritive environment (pH 6.8). The inoculates were prepared from fungi stems which were harvested over 3–7 days. Their concentration in suspension is (2–4) × 10^6 colonies form unities in milliliter. Sowings for levures and micelles were incubated at 37 °C during 7 and 14 days, respectively.

Data set [4] can be described thus: Solubility in compendial aqueous media. It is filed as physicochemical. To be noted: 37 °C, 30 min, mean ± standard deviation, n = 3. The method, then: Solubility assessment was conducted in compendial aqueous solutions prepared according to United States Pharmacopoeia USP39/NF34): hydrochloric acid 0.1 N pH 1.2, acetate buffer pH 4.5 and phosphate buffer 6.8. These buffer systems are routinely used for screening of drug dissolution testing and they simulate the pH values of proximal gastrointestinal regions. The standard samples were prepared by diluting the stock solution of 80 µg/mL in dimethyl sulfoxide (with 0.2% pyridine, v/v) with corresponding media. The reagents were of analytical grade and used as received.
The assay was performed using a SpectraMax Plus 84 Plate reader reader (Sunnyvale, CA, USA), Molecular Devices LLC (US), equiped with SoftMax software version 6.4.2 (Sunnyvale, CA, USA). Separate plates were loaded with standard solutions in nine concentrations (0.2 to 80 µg/mL). For evaluation of the aqueous solubility, the samples were prepared in triplicate by adding 10 µL of the stock solution to the wells loaded with 190 µL of each buffer, using MultiScreen HTS plates (PCF, code MSSLBPC, Merck Millipore, Darmstadt, Germany). After 30 minutes of incubation at 37 ± 0.5 °C under agitation (250 rpm, IKA KS 4000 ic control, IKA, Staufen, Germany), the plates were filtrated under vacuum using a Vac-Man 96 Vacuum manifold (Promega Corporation, Madison, WI, USA). The solutions were collected in V-bottom polypropylene 96-well microplates (Greiner Bio-One, Kremsmünster, Austria). Volumes of 100 µL were transferred to UV-Star 96-well microplate with flat bottom (Chimney well, Grained Bio-One) and diluted by addition of 100 µL of the corresponding medium. The absorbance corresponding to each well was determined at fixed wavelengths: 280, 300, 320, 340, 360 and 800 nm. The reduced value of absorbance, calculated by the sum of the values recorded at the six wavelengths, were used for the calibration curve and subsequent determination of concentration in each solubility sample.

Data set [5] has as its system A375 human melanoma cell line. Nature of the data set: Alamar blue cell viability assay. It is filed as cell-based. Conditions: 48 h treatment, 10 µM, relative to untreated control. The method, then: (§3) Compounds HL, 1, 5, 6 and 8 were dissolved in dimethyl sulfoxide (DMSO; Sigma-Aldrich, Ayrshire, UK) and stored at 2–8 °C. Compounds 2, 3, 4 and 7 were dissolved in pyridine (Fluka, Munich, Germany). A stock solution of 10 mM in the proper solvents was prepared; as for the final concentration (10 µM), successive dilution of the stock solution with culture medium was made.
(§4) The breast cancer cell lines were cultured as follow: MCF-7 human breast cancer cell line (ATCC, Rockville, MD, USA) was cultured in EMEM (Sigma Aldrich, Munich, Germany) supplemented with 10% FCS (fetal bovine serum, PromoCell, Heidelberg, Germany), 1% penicillin-streptomycin (Pen/Strep, 10,000 IU/mL; PromoCell, Heidelberg, Germany), 1% nonessential amino acids and 1% glutamine (PromoCell, Heidelberg, Germany). SKBR-3 human breast cancer cell line was cultured in McCoy’s 5a Medium Modified (Sigma Aldrich, Munich, Germany) supplemented with 10% FCS (fetal bovine serum, PromoCell, Heidelberg, Germany), 1% penicillin-streptomycin (Pen/Strep, 10,000 IU/mL; PromoCell, Heidelberg, Germany). A375 human melanoma cell line was cultured in DMEM containing 15% FCS (fetal bovine serum, PromoCell, Heidelberg, Germany) and 1% penicillin-streptomycin (Pen/Strep, 10,000 IU/mL; PromoCell, Heidelberg, Germany). Cells were maintained at an atmosphere of 5% CO2 at 37 °C. NCI-H1573 lung adenocarcinoma cell line was cultured in RPMI-1640 Medium (ATCC, Rockville, MD, USA) supplemented with 10% FCS (fetal bovine serum, PromoCell, Heidelberg, Germany), 1% penicillin-streptomycin (Pen/Strep, 10,000 IU/mL; PromoCell, Heidelberg, Germany).
(§5) All tested cell lines were seeded onto a 96-well microplate ([…]) and left overnight to attach to the bottom of the well. After 24 h, the amount of 150 μL of the tested substances dissolved into the culture medium was added and cells were incubated for 48 h. After the incubation period, a volume of 15 μL of the Alamar blue (BioSource, Camarillo, CA, USA) solution was added. After another 10 h of incubation at 37 °C, the samples were spectrophotometrically analyzed using a microplate reader. The wave lengths used were 570 nm and 600 nm, respectively. Wells with untreated cells were used as controls. The highest concentration of DMSO and pyridine (0.1%) used to prepare stock solutions was also tested, in order to identify the solvent activity. All measurements were performed in triplicate and data were presented as mean ± standard deviation.

Data set [6] has as its system MCF-7 human breast cancer cell line. Nature of the data set: Alamar blue cell viability assay. Format: cell-based. To be noted: 48 h treatment, 10 µM, relative to untreated control. The method, then: as §3, §4, §5
In data set [7] the test system is SKBR-3 human breast cancer cell line. Nature of the data set: Alamar blue cell viability assay. To be noted: 48 h treatment, 10 µM, relative to untreated control. It is filed as cell-based. The method, then:
as §3, §4, §5

Data set [8] can be described thus: Qualitative solubility in organic solvents. It is filed as physicochemical.
In data set [9] the test system is NCI-H1573 lung adenocarcinoma cell line. Briefly: Alamar blue cell viability assay. It is filed as cell-based. To be noted: 48 h treatment, 10 µM, relative to untreated control. The protocol: as §3, §4, §5
Setting [10] is: Hydrochloric Acid 0.1 N (pH = 1.2).

For the molecule `O=[N+]([O-])[O-].O=[N+]([O-])[O-].[Cu+2]` [Cu(NO3)2], the LC50 was 7.43 µM with Daphnia magna (incubation period 24 h) and 1.39 µM with Daphnia magna (incubation period 48 h).

In the case of `NC(=O)N/N=C/c1ccc([N+](=O)[O-])o1` [Furacillinum, reference compound], the values for the MBC in [1], in data set [2] and in data set [3] were 37.5 µg/mL (≈ 189 µM), over 300 µg/mL and 9.35 µg/mL (≈ 47.2 µM), respectively. Also, the figures for the MIC in data set [1], in data set [2] and in [3] were 18.7 µg/mL (≈ 94.4 µM), over 300 µg/mL and 9.35 µg/mL (≈ 47.2 µM), respectively.

Take `CC(=O)[O-].CC(=O)[O-].[Cu+2]` [Cu(CH3COO)2]: the “LC50 of copper acetate relative to the perchlorate” value with Daphnia magna (after 24 h of exposure, printed as 'lower') was “about 25 fold”. For the same molecule, the LC50 came out at 9.68 µM in the data set on Daphnia magna (incubation period 24 h) and 0.44 µM in the data set on Daphnia magna (incubation period 48 h).

In the data set on Candida albicans, `C[C@@H]1[C@H](O)[C@@H](C)/C=C/C=C/CC/C=C/C=C/C=C/C=C/C(O[C@H]2O[C@H](C)[C@@H](O)[C@H](N)[C@@H]2O)CC2O[C@](O)(CC(O)C(O)CCC(O)CC(O)CC(O)CC(=O)O[C@H]1C)CC(O)C2C(=O)O` (stereo partly shown) [Nystatine, reference compound] gave an MBC of 80 µg/mL (≈ 86.4 µM) and an MIC of 80 µg/mL (≈ 86.4 µM).

For the molecule `[Cl][Pt-2]([Cl])([Cl])[Cl].[K+].[K+]` [K2PtCl4], the results for the LC50 in the data set with Daphnia magna (incubation period 24 h) and in the data set with Daphnia magna (incubation period 48 h) were 27.7 µM and 5.63 µM, respectively.

The molecule `[Cu+2].[O-][Cl+3]([O-])([O-])[O-].[O-][Cl+3]([O-])([O-])[O-]` [Cu(ClO4)2] came in with an LC50 in the data set on Daphnia magna (incubation period 24 h) of 0.39 µM.

Take `[Cl][Cu][Cl]` [CuCl2]: the LC50 in the data set with Daphnia magna (incubation period 24 h) stood at 4.23 µM; in the data set on Daphnia magna (incubation period 48 h) it was 0.97 µM.

As for `[Cl-].[Cl-].[Zn+2]` [ZnCl2], the LC50 was determined as 15.4 µM in the data set on Daphnia magna (incubation period 24 h) and 0.89 µM with Daphnia magna (incubation period 48 h).

For the molecule `COc1cccc(C=NNC(=O)c2ccncc2)c1[O-].O.O.[Cl-].[Cu+2]` [complex 1, [Cu(L)(Cl)]·2H2O], the “solubility in compendial media” value in [4] (Acetate Buffer (pH = 4.5)) is recorded as 1.89 ± 0.20 µg/mL; in data set [4] (setting [10]), 2.34 ± 0.28 µg/mL; in data set [4] (Phosphate Buffer (pH = 6.8)), under 0.2 µg/mL. Further, the MBC in [1] came to 500 µg/mL; in data set [2] it was 500 µg/mL; in data set [3], 0.03 µg/mL; in the data set with Candida albicans it was 15 µg/mL. The MIC was 500 µg/mL in data set [1], 500 µg/mL in data set [2], 0.015 µg/mL in data set [3] and 7 µg/mL in the data set on Candida albicans. Also, the Viability % in data set [5] is 84.43%; in [6], 2.47%; in data set [7] it was 25.24%. Moreover, in data set [8], the “solubility in organic solvents (qualitative)” value (shortened to “solubility in organic solvents”) was “soluble in acetone, acetonitrile, DMF and DMSO, and is partially soluble in ethanol and methanol”. Further, the LC50 in the data set with Daphnia magna (incubation period 24 h) turned out to be 394 µM; in the data set with Daphnia magna (incubation period 48 h), 69.5 µM.

Consider `COc1cccc(C=NNC(=O)c2ccncc2)c1[O-].[Cl-].[Ni+2]` [complex 7, [Ni(L)(Cl)]], for which the “solubility in compendial media” value is recorded as 1.91 ± 0.26 µg/mL in data set [4] (Acetate Buffer (pH = 4.5)), 2.26 ± 0.44 µg/mL in [4] (setting [10]) and under 0.2 µg/mL in data set [4] (Phosphate Buffer (pH = 6.8)). The MBC in data set [1] is 500 µg/mL; in data set [2] it was 500 µg/mL; in data set [3] it was 0.7 µg/mL; against Candida albicans it was 125 µg/mL. Further, the MIC in data set [1] was 500 µg/mL; in data set [2], 500 µg/mL; in data set [3] it was 0.7 µg/mL; in the data set on Candida albicans it was 125 µg/mL. Besides, the Viability % is listed as 98.97% in data set [5], 47.75% in data set [6] and 21.11% in [7]. The “solubility in organic solvents” value in data set [8] was “soluble in methanol, pyridine, DMF and DMSO, and is partially soluble in acetonitrile, acetone”. Besides, the LC50 in the data set with Daphnia magna (incubation period 24 h) was found to be 351 µM; in the data set on Daphnia magna (incubation period 48 h) it was 210 µM.

For `COc1cccc(C=NNC(=O)c2ccncc2)c1[O-].[Cl-].[Pt+2]` [complex 8, [Pt(L)(Cl)]], the results for the “solubility in compendial media” value in data set [4] (Acetate Buffer (pH = 4.5)), in [4] (setting [10]) and in data set [4] (Phosphate Buffer (pH = 6.8)) were 2.49 ± 0.09 µg/mL, 1.33 ± 0.05 µg/mL and under 0.2 µg/mL, respectively. Also, the MBC in data set [1] came out at 250 µg/mL; in [2], 500 µg/mL; in data set [3], 0.7 µg/mL; in the data set with Candida albicans, 63 µg/mL. In addition, the MIC in data set [1] is recorded as 125 µg/mL; in data set [2] it was 250 µg/mL; in [3], 0.7 µg/mL; against Candida albicans, 63 µg/mL. For the same molecule, the Viability % is listed as 73.45% in [5], 21.71% in data set [6] and 20.34% in data set [9]. Moreover, the “solubility in organic solvents” value in [8] is “soluble in DMF and DMSO, and is partially soluble in ethanol, methanol, acetonitrile, acetone”. The LC50 stood at 469 µM in the data set on Daphnia magna (incubation period 24 h) and 78.2 µM in the data set on Daphnia magna (incubation period 48 h).

With `[Cl][Ni][Cl]` [NiCl2], the LC50 in the data set with Daphnia magna (incubation period 24 h) was determined as 100 µM; in the data set with Daphnia magna (incubation period 48 h), 16.2 µM.

The term LC50 denotes the concentration lethal to half of the exposed cells or organisms. By MIC is commonly meant the smallest concentration in the dilution series that meets the test's criterion for growth inhibition. Read a high MIC as weaker potency.
